Like-named read-outs stand apart in the source and are kept apart here.
Columns and labels:
[1] = In vitro metabolic stability in rat hepatocytes (Method 5); assay type: in vitro ADME, Han Wistar rat; conditions: 1 μM test compound
Method in brief: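 Han Wistar rat hepatocytes isolated by 2-step perfusion, incubated at 1.0×10^6 viable cells/ml in Williams medium E with 5% FCS with 1 μM test compound, shaken; samples at 2–90 min quenched with acetonitrile, analysed by LC-MS/MS. Half-life from concentration-time plot, converted to intrinsic clearance.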

[2] = tested on: HeLa, human cervical tumour cells; assay: Proliferation assay, HeLa (Method 3); assay type: cell-based; conditions: 4 days, crystal violet, read-out: Inhibition of HeLa cell proliferation IC50
Method in brief: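 24 h attachment → fresh medium + test cpd (0.001–10 μM, 0.5% DMSO final) → 4 d incubation → glutaraldehyde fix, 0.1% crystal violet (pH 3.0), acetic acid elution → A595. Normalized: zero-point plate = 0%, vehicle = 100%.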

CDK9/CycT1 = CDK9/CycT1 (Homo sapiens (Human), UniProt P50750); assay: CDK9/CycT1 high ATP kinase assay (Method 1b); assay type: biochemical; conditions: 2 mM ATP
Method in brief: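 Full-length His-tagged human CDK9/CycT1 (insect cells, ~0.5 μg/ml) pre-incubated 15 min at 22 °C with compound in Tris pH 8.0/MgCl2/DTT buffer; biotinylated peptide substrate, high ATP. After detection reagents, 1 h at 22 °C; TR-FRET 665/620 nm emission ratio (350 nm excitation) measured phosphorylation.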

[3] = tested on: Caco-2, human colorectal carcinoma cells; assay: Proliferation assay, Caco-2 (Method 3); assay type: cell-based; conditions: Caco-2, 4 days, crystal violet, read-out: Inhibition of Caco-2 cell proliferation IC50
Protocol: (§1) After 24 hours, the cells of one plate (zero-point plate) were stained with crystal violet (see below), while the medium of the other plates was replaced by fresh culture medium (200 μl), to which the test substances were added in various concentrations (0 μM, as well as in the range of 0.001-10 μM; the final concentration of the solvent dimethyl sulfoxide was 0.5%). The cells were incubated for 4 days in the presence of test substances. Cell proliferation was determined by staining the cells with crystal violet: the cells were fixed by adding 20 μl/measuring point of an 11% glutaric aldehyde solution for 15 minutes at room temperature. After three washing cycles of the fixed cells with water, the plates were dried at room temperature. The cells were stained by adding 100 μl/measuring point of a 0.1% crystal violet solution (pH 3.0). After three washing cycles of the stained cells with water, the plates were dried at room temperature. The dye was dissolved by adding 100 μl/measuring point of a 10% acetic acid solution. The extinction was determined by photometry at a wavelength of 595 nm. The change of cell number, in percent, was calculated by normalization of the measured values to the extinction values of the zero-point plate (=0%) and the extinction of the untreated (0 μm) cells (=100%).

[4] = tested on: DU 145, hormone-independent human prostate carcinoma cells; assay: Proliferation assay, DU 145 (Method 3); assay type: cell-based; conditions: DU145, 4 days, crystal violet, read-out: Inhibition of DU145 cell proliferation IC50
Protocol: as §1

[5] = tested on: HeLa-MaTu-ADR, multidrug-resistant human cervical carcinoma cells; assay: Proliferation assay, HeLa-MaTu-ADR (Method 3); assay type: cell-based; conditions: 4 days, crystal violet, read-out: Inhibition of HeLa-MaTu-ADR cell proliferation IC50
Protocol: as §1

Sequence of CDK9/CycT1 (P50750 whole entry): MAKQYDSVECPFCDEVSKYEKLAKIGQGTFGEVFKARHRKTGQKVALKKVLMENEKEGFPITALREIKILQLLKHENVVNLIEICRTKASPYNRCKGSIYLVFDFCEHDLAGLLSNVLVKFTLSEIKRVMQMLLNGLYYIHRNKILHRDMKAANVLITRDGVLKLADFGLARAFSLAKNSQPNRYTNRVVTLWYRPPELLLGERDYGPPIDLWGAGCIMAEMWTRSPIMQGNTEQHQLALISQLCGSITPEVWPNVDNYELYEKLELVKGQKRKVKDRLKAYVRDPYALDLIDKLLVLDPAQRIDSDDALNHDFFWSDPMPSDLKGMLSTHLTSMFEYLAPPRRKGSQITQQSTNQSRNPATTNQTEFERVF
Sequence of CDK9/CycT1 (O60563 whole entry partner): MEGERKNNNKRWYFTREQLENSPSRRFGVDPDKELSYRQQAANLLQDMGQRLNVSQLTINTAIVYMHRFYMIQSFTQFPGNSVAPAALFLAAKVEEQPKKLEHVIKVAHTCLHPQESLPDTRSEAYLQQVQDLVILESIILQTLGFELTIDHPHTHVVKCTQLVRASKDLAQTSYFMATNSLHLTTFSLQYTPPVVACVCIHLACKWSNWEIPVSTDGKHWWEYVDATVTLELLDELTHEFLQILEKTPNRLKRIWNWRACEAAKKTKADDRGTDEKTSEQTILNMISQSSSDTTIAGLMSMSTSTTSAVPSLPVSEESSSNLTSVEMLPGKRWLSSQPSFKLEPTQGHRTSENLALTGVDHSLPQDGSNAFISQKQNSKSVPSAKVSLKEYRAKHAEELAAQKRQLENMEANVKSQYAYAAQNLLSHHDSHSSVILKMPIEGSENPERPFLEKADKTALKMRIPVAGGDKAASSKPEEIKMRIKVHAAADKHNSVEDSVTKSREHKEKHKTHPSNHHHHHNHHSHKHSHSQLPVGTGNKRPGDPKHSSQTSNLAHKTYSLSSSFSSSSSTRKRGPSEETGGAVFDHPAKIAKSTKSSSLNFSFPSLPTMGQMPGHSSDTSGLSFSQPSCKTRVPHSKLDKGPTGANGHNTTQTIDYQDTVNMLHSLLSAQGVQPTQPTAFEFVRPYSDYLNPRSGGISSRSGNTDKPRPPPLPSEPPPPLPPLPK

Compound: CS(=O)(Cc1cc(Nc2ncc(F)c(-c3ccc(F)cc3F)n2)cc(C(F)(F)F)c1)=NC#N (racemic) [Example 1, (rac)-{[3-{[4-(2,4-Difluorophenyl)-5-fluoropyrimidin-2-yl]amino}-5-(trifluoromethyl)benzyl](methyl)oxido-λ^6-sulfanylidene}cyanamide]
- maximal calculated oral bioavailability (Fmax) based on stability data in rat Hepatocytes [1]: 75%
- IC50 ([2]; Homo sapiens, 96 h): 440 nM
- IC50 (CDK9/CycT1): 39 nM

Compound: CS(=N)(=O)Cc1cc(Nc2ncc(F)c(-c3ccc(F)cc3F)n2)cc(C(F)(F)F)c1 (racemic) [Example 4, (rac)-4-(2,4-Difluorophenyl)-5-fluoro-N-{3-[(S-methylsulfonimidoyl)methyl]-5-(trifluoromethyl)phenyl}pyrimidin-2-amine]
- maximal calculated oral bioavailability (Fmax) based on stability data in rat Hepatocytes [1]: 91%
- IC50 ([2]; Homo sapiens, 96 h): 960 nM
- IC50 (CDK9/CycT1): 251 nM

Compound: CS(=O)(Cc1cc(Nc2ncc(F)c(-c3ccc(F)cc3F)n2)cc(C(F)(F)F)c1)=NC(N)=O (racemic) [Example 7, (rac)-1-{[3-{[4-(2,4-Difluorophenyl)-5-fluoropyrimidin-2-yl]amino}-5-(trifluoromethyl)benzyl](methyl)oxido-λ^6-sulfanylidene}urea]
- maximal calculated oral bioavailability (Fmax) based on stability data in rat Hepatocytes [1]: 80%
- IC50 ([2]; Homo sapiens, 96 h): 470 nM
- IC50 (CDK9/CycT1): 105 nM

Compound: CS(=N)(=O)Cc1cc(Cl)cc(Nc2ncc(F)c(-c3ccc(F)cc3F)n2)c1 (racemic) [Example 15, (rac)-N-{3-chloro-5-[(S-methylsulfonimidoyl)methyl]phenyl}-4-(2,4-difluorophenyl)-5-fluoropyrimidin-2-amine]
- maximal calculated oral bioavailability (Fmax) based on stability data in rat Hepatocytes [1]: 79%
- IC50 ([2]; Homo sapiens, 96 h): 2210 nM
- IC50 (CDK9/CycT1): 892 nM

Compound: CS(=O)(Cc1cc(Nc2ncc(F)c(-c3ccc(F)cc3F)n2)cc(S(F)(F)(F)(F)F)c1)=NC#N (racemic) [Example 28, (rac)-{[3-{[4-(2,4-Difluorophenyl)-5-fluoropyrimidin-2-yl]amino}-5-(pentafluoro-λ^6-sulfanyl)benzyl](methyl)oxido-λ^6-sulfanylidene}cyanamide]
- IC50 ([2]; Homo sapiens, 96 h): 262 nM
- IC50 ([3]; Homo sapiens, Caco-2, 96 h): 222 nM
- IC50 ([4]; Homo sapiens, DU-145, 96 h): 311 nM
- IC50 (CDK9/CycT1): 5 nM
- IC50 ([5]; Homo sapiens, 96 h): 120 nM

Compound: CS(=O)(Cc1cc(Nc2ncc(F)c(-c3ccc(F)cc3F)n2)cc(C(F)(F)F)c1)=NC#N (single isomer, unassigned) [Example 2, {[3-{[4-(2,4-Difluorophenyl)-5-fluoropyrimidin-2-yl]amino}-5-(trifluoromethyl)benzyl](methyl)oxido-λ^6-sulfanylidene}cyanamide]
- maximal calculated oral bioavailability (Fmax) based on stability data in rat Hepatocytes [1]: 79%
- IC50 ([2]; Homo sapiens, 96 h): 350 nM
- IC50 ([3]; Homo sapiens, Caco-2, 96 h): 300 nM
- IC50 ([4]; Homo sapiens, DU-145, 96 h): 310 nM
- IC50 (CDK9/CycT1): 29 nM
- IC50 ([5]; Homo sapiens, 96 h): 320 nM

Compound: CS(=O)(Cc1cc(Nc2ncc(F)c(-c3ccc(F)cc3F)n2)cc(C(F)(F)F)c1)=NC#N (single isomer, unassigned) [Example 3, {[3-{[4-(2,4-Difluorophenyl)-5-fluoropyrimidin-2-yl]amino}-5-(trifluoromethyl)benzyl](methyl)oxido-λ^6-sulfanylidene}cyanamide]
- maximal calculated oral bioavailability (Fmax) based on stability data in rat Hepatocytes [1]: 76%
- IC50 [2]: 590 nM
- IC50 [3]: 300 nM
- IC50 [4]: 370 nM
- IC50 (CDK9/CycT1): 32 nM
- IC50 [5]: 200 nM

Compound: CS(=O)(Cc1cc(Nc2ncc(F)c(-c3ccc(F)cc3F)n2)cc(C(F)(F)F)c1)=NC(N)=O (single isomer, unassigned) [Example 23, 1-{[3-{[4-(2,4-Difluorophenyl)-5-fluoropyrimidin-2-yl]amino}-5-(trifluoromethyl)benzyl](methyl)oxido-λ^6-sulfanylidene}urea]
- maximal calculated oral bioavailability (Fmax) based on stability data in rat Hepatocytes [1]: 93%
- IC50 [2]: 290 nM
- IC50 ([3]; Homo sapiens, Caco-2, 96 h): 230 nM
- IC50 ([4]; Homo sapiens, DU-145, 96 h): 250 nM
- IC50 (CDK9/CycT1): 16 nM
- IC50 ([5]; Homo sapiens, 96 h): 200 nM

Compound: CS(=N)(=O)Cc1cc(Nc2ncc(F)c(-c3ccc(F)cc3F)n2)cc(S(F)(F)(F)(F)F)c1 (single isomer, unassigned) [Example 32, 4-(2,4-Difluorophenyl)-5-fluoro-N-{3-[(S-methylsulfonimidoyl)methyl]-5-(pentafluoro-λ^6-sulfanyl)phenyl}pyrimidin-2-amine]
- maximal calculated oral bioavailability (Fmax) based on stability data in rat Hepatocytes [1]: 91%
- IC50 [2]: 331 nM
- IC50 ([3]; Homo sapiens, Caco-2, 96 h): 282 nM
- IC50 ([4]; Homo sapiens, DU-145, 96 h): 397 nM
- IC50 (CDK9/CycT1): 6 nM
- IC50 ([5]; Homo sapiens, 96 h): 304 nM

Compound: CS(=O)(Cc1cc(Nc2ncc(F)c(-c3ccc(F)cc3F)n2)cc(S(F)(F)(F)(F)F)c1)=NC(N)=O (single isomer, unassigned) [Example 33, 1-{[3-{[4-(2,4-Difluorophenyl)-5-fluoropyrimidin-2-yl]amino}-5-(pentafluoro-λ^6-sulfanyl)benzyl](methyl)oxido-λ^6-sulfanylidene}urea]
- IC50 ([2]; Homo sapiens, 96 h): 278 nM
- IC50 [3]: 716 nM
- IC50 [4]: 507 nM
- IC50 (CDK9/CycT1): 99 nM
- IC50 [5]: 495 nM

Source: US9499492B2, “4-(ortho)-fluorophenyl-5-fluoropyrimidin-2-yl amines containing a sulfoximine group” (BAYER PHARMA AKTIENGESELLSCHAFT, priority 2012, dated 2016)
